Reference: DBAASP
Converted amounts (≈) assume the structure as drawn. “And” between values parts separate entries of the source, which are not always exact repeats. Equal values may be shown once.

Tests used:
Test in all cases: ≥ marks a high value that may be exact or a test limit, other limits are often not marked, values filed in µg/mL are converted to µM
[1] = tested on: Pseudomonas aeruginosa KCTC 1637
[2] = tested on: Salmonella typhimurium KCTC 1926
[3] = tested on: Staphylococcus epidermidis KCTC 1917
[4] = tested on: Staphylococcus aureus KCTC 1621
[5] = tested on: Bacillus subtilis KCTC 3068
[6] = tested on: Escherichia coli KCTC 1682
[7] = tested on: Staphylococcus aureus NCTC 8325
[8] = tested on: Escherichia coli ATCC 25922
[9] = tested on: Klebsiella pneumoniae ATCC 13883
[10] = tested on: Pseudomonas aeruginosa PAO1
[11] = tested on: Staphylococcus aureus USA 300
[12] = tested on: Staphylococcus aureus ATCC 25923
Acinetobacter baumannii = tested on: Acinetobacter baumannii
Klebsiella pneumoniae = tested on: Klebsiella pneumoniae
[13] = tested on: Acinetobacter baumannii ATCC 19606
Escherichia coli = tested on: Escherichia coli
Pseudomonas aeruginosa = tested on: Pseudomonas aeruginosa
[14] = tested on: Pseudomonas aeruginosa ATCC 27853
Staphylococcus aureus = tested on: Staphylococcus aureus
[15] = tested on: Salmonella enterica subsp. enterica serovar Typhimurium ATCC 14028
[16] = tested on: Candida albicans ATCC 2002
[17] = tested on: Pseudomonas aeruginosa CMCCB 10104

With CC(C)C[C@H](NC(=O)[C@H](Cc1ccccc1)NC(=O)[C@H](CCCN=C(N)N)NC(=O)[C@H](CCCCN)NC(=O)[C@H](Cc1c[nH]c2ccccc12)NC(=O)[C@H](CCCN=C(N)N)NC(=O)[C@H](CCC(N)=O)NC(=O)[C@@H](NC(=O)[C@H](Cc1c[nH]c2ccccc12)NC(=O)[C@H](CCCN=C(N)N)NC(=O)[C@H](CCCCN)NC(=O)[C@@H](N)Cc1ccccc1)C(C)C)C(=O)N[C@@H](CCCN=C(N)N)C(N)=O [FKRWVQRWKRFLR] the MIC [1] was 16 µM (≈ 30.5 µg/mL), the MIC [2] was 2 µM (≈ 3.81 µg/mL) and the MIC [3] was 4 µM (≈ 7.62 µg/mL). It also gave an MIC [4] of 2 µM (≈ 3.81 µg/mL), an MIC [5] of 2 µM (≈ 3.81 µg/mL) and an MIC [6] of 4 µM (≈ 7.62 µg/mL).

With CSCC[C@H](NC(=O)[C@H](CC(C)C)NC(=O)[C@H](CO)NC(=O)CNC(=O)[C@H](C)NC(=O)[C@@H](NC(=O)[C@H](CC(N)=O)NC(=O)[C@H](CCCCN)NC(=O)[C@H](CC(C)C)NC(=O)[C@@H](NC(=O)[C@H](CC(N)=O)NC(=O)[C@H](CCCCN)NC(=O)CNC(=O)[C@@H](NC(=O)[C@H](CCCCN)NC(=O)[C@H](CCCCN)NC(=O)[C@H](Cc1ccccc1)NC(=O)[C@@H](NC(=O)[C@H](CC(N)=O)NC(=O)[C@H](Cc1ccccc1)NC(=O)[C@H](CC(C)C)NC(=O)CN)C(C)C)C(C)C)C(C)C)C(C)C)C(=O)N[C@@H](CC(=O)O)C(=O)N[C@@H](CC(N)=O)C(=O)N[C@@H](CC(C)C)C(=O)N[C@@H](CCCCN)C(=O)N[C@H]1CSSC[C@@H](C(=O)O)NC(=O)[C@H](CCC(=O)O)NC(=O)CNC(=O)[C@H](CO)NC(=O)[C@H](C(C)C)NC(=O)[C@H](CCCCN)NC1=O [GLFNVFKKVGKNVLKNVAGSLMDNLKCKVSGEC] the MIC [7] was at least 50 µM and the MIC [8] was 3 µM (≈ 10.6 µg/mL).

CC[C@H](C)[C@H](NC(=O)CNC(=O)[C@H](CCCCN)NC(=O)[C@H](Cc1ccccc1)NC(=O)[C@@H](NC(=O)[C@H](CCCCN)NC(=O)[C@H](CCCCN)NC(=O)[C@H](CC(C)C)NC(=O)[C@H](C)NC(=O)[C@H](CCCCN)NC(=O)[C@H](CC(C)C)NC(=O)CN)C(C)C)C(=O)N[C@@H](Cc1cnc[nH]1)C(=O)N[C@@H](CCCCN)C(=O)N[C@@H](C)C(=O)N[C@H](C(=O)N[C@@H](CCCCN)C(=O)N[C@@H](CC(C)C)C(=O)N[C@H](C(=O)N[C@@H](CC(N)=O)C(=O)N[C@@H](CCCCN)C(=O)N[C@@H](Cc1cnc[nH]1)C(=O)N[C@H](C(=O)N[C@@H](CCCCN)C(=O)O)C(C)C)[C@@H](C)CC)[C@@H](C)CC [GLKALKKVFKGIHKAIKLINKHVK] was tested, and the MIC [7] was 20 µM (≈ 54.2 µg/mL) and the MIC [8] was 5 µM (≈ 13.6 µg/mL).

In the case of CC(C)C[C@H](NC(=O)[C@H](CC(C)C)NC(=O)[C@H](CCCCN)NC(=O)CNC(=O)[C@H](CC(C)C)NC(=O)[C@H](C)NC(=O)[C@H](CO)NC(=O)[C@H](CC(C)C)NC(=O)[C@H](CC(C)C)NC(=O)[C@H](CO)NC(=O)[C@H](CC(C)C)NC(=O)[C@H](CC(C)C)NC(=O)CN)C(N)=O [GLLSLLSALGKLL], the MIC [9] is reported as 25 µM (≈ 32.4 µg/mL), the MIC [8] is reported as over 25 µM and the MIC [10] is reported as over 25 µM. For the same compound, the MIC [11] was 1.56 µM (≈ 2.02 µg/mL).

CC[C@H](C)[C@H](NC(=O)CNC(=O)[C@H](CCC(N)=O)NC(=O)[C@H](Cc1ccccc1)NC(=O)[C@@H](NC(=O)[C@H](CCCCN)NC(=O)[C@H](CCCCN)NC(=O)[C@H](Cc1ccccc1)NC(=O)[C@H](C)NC(=O)[C@H](CC(N)=O)NC(=O)[C@H](CC(C)C)NC(=O)CN)C(C)C)C(=O)N[C@@H](Cc1cnc[nH]1)C(=O)N[C@@H](CCC(=O)O)C(=O)N[C@@H](C)C(=O)N[C@H](C(=O)N[C@@H](CCCCN)C(=O)N[C@@H](CC(C)C)C(=O)N[C@H](C(=O)N[C@@H](CC(N)=O)C(=O)N[C@@H](CC(N)=O)C(=O)N[C@@H](Cc1cnc[nH]1)C(=O)N[C@H](C(=O)N[C@@H](CCC(N)=O)C(=O)O)C(C)C)[C@@H](C)CC)[C@@H](C)CC [GLNAFKKVFQGIHEAIKLINNHVQ] showed an MIC [7] of at least 160 µM and an MIC [8] of 20 µM (≈ 54.4 µg/mL).

In the case of CC[C@H](C)[C@H](NC(=O)CNC(=O)[C@H](CCCCN)NC(=O)[C@H](Cc1ccccc1)NC(=O)[C@@H](NC(=O)[C@H](CCCCN)NC(=O)[C@H](CCCCN)NC(=O)[C@H](CC(C)C)NC(=O)[C@H](C)NC(=O)[C@H](CC(N)=O)NC(=O)[C@H](CC(C)C)NC(=O)CN)C(C)C)C(=O)N[C@@H](Cc1cnc[nH]1)C(=O)N[C@@H](CCC(=O)O)C(=O)N[C@@H](C)C(=O)N[C@H](C(=O)N[C@@H](CCCCN)C(=O)N[C@@H](CC(C)C)C(=O)N[C@H](C(=O)N[C@@H](CC(N)=O)C(=O)N[C@@H](CC(N)=O)C(=O)N[C@@H](Cc1cnc[nH]1)C(=O)N[C@H](C(=O)N[C@@H](CCC(N)=O)C(=O)O)C(C)C)[C@@H](C)CC)[C@@H](C)CC [GLNALKKVFKGIHEAIKLINNHVQ], the MIC [7] is reported as at least 80 µM and the MIC [8] is reported as 20 µM (≈ 53.7 µg/mL).

CC[C@H](C)[C@H](NC(=O)CNC(=O)[C@H](CCC(N)=O)NC(=O)[C@H](Cc1ccccc1)NC(=O)[C@@H](NC(=O)[C@H](CCCCN)NC(=O)[C@H](CCCCN)NC(=O)[C@H](CC(C)C)NC(=O)[C@H](C)NC(=O)[C@H](CC(N)=O)NC(=O)[C@H](CC(C)C)NC(=O)CN)C(C)C)C(=O)N[C@@H](Cc1cnc[nH]1)C(=O)N[C@@H](CCCCN)C(=O)N[C@@H](C)C(=O)N[C@H](C(=O)N[C@@H](CCCCN)C(=O)N[C@@H](CC(C)C)C(=O)N[C@H](C(=O)N[C@@H](CC(N)=O)C(=O)N[C@@H](CC(N)=O)C(=O)N[C@@H](Cc1cnc[nH]1)C(=O)N[C@H](C(=O)N[C@@H](CCC(N)=O)C(=O)O)C(C)C)[C@@H](C)CC)[C@@H](C)CC [GLNALKKVFQGIHKAIKLINNHVQ] was tested, and the MIC [7] was at least 40 µM and the MIC [8] was 20 µM (≈ 53.7 µg/mL).

CC[C@H](C)[C@H](NC(=O)[C@H](CCCCN)NC(=O)[C@H](CC(C)C)NC(=O)[C@H](C)NC(=O)[C@H](CCCCN)NC(=O)[C@H](CC(C)C)NC(=O)[C@H](C)NC(=O)CNC(=O)[C@H](CCCCN)NC(=O)[C@H](C)NC(=O)[C@@H](NC(=O)[C@@H](N)CCCCN)[C@@H](C)CC)C(=O)N[C@@H](C)C(=O)N[C@@H](CCCCN)C(=O)N[C@H](C(=O)N[C@@H](C)C(=O)N[C@@H](CC(C)C)C(=O)N[C@@H](CCCCN)C(=O)N[C@@H](C)C(=O)N[C@@H](CC(C)C)C(N)=O)C(C)C [KIAKGALKALKIAKVALKAL] gave an MIC [12] of 11.3 µM (≈ 23.2 µg/mL), an MIC (Acinetobacter baumannii) of 0.5 µM (≈ 1.02 µg/mL) and an MIC [9] of 2 µM (≈ 4.1 µg/mL). It also gave an MIC [8] of 0.354 µM (≈ 0.724 µg/mL), an MIC (Klebsiella pneumoniae) of 4 µM (≈ 8.19 µg/mL) and an MIC [13] of 0.707 µM (≈ 1.45 µg/mL). For the same compound, the MIC (Escherichia coli) was 4 µM (≈ 8.19 µg/mL), the MIC (Pseudomonas aeruginosa) was 2.83 µM (≈ 5.79 µg/mL) and the MIC [14] was 2 µM (≈ 4.1 µg/mL). For the same compound, the MIC (Staphylococcus aureus) was 5.66 µM (≈ 11.6 µg/mL).

For CC(C)C[C@H](NC(=O)[C@H](CC(C)C)NC(=O)[C@H](CCCCN)NC(=O)[C@H](CCCCN)NC(=O)[C@H](Cc1c[nH]c2ccccc12)NC(=O)[C@H](CC(C)C)NC(=O)[C@H](CCCCN)NC(=O)[C@H](CCCCN)NC(=O)[C@H](CC(C)C)NC(=O)[C@@H](N)CCCCN)C(=O)N[C@@H](CCCCN)C(N)=O [KLKKLWKKLLK], the MIC [5] was 8.77 µM and 17.5 µM.

CC(C)C[C@H](NC(=O)[C@H](CCCN=C(N)N)NC(=O)[C@H](CCCN=C(N)N)NC(=O)[C@H](C)NC(=O)[C@H](Cc1c[nH]c2ccccc12)NC(=O)CNC(=O)[C@H](CCCN=C(N)N)NC(=O)[C@@H](N)CCCN=C(N)N)C(=O)N[C@@H](C)C(=O)N[C@@H](C)C(=O)N[C@@H](C)C(=O)N[C@@H](Cc1ccc(O)cc1)C(=O)NCC(=O)N[C@@H](CCCN=C(N)N)C(=O)N[C@@H](CCCN=C(N)N)C(N)=O [RRGWARRLAAAYGRR] was tested, and the MIC [12] was over 30 µM, the MIC [9] was 30 µM (≈ 54.5 µg/mL) and the MIC [8] was 18.1 µM and 30 µM. The MIC [13] was 25.4 µM and 30 µM and the MIC [15] was over 30 µM.

CC[C@H](C)[C@H](NC(=O)[C@H](CCCCN)NC(=O)[C@H](CCCCN)NC(=O)CNC(=O)[C@H](CCSC)NC(=O)[C@H](CO)NC(=O)[C@@H](NC(=O)[C@@H](NC(=O)[C@H](CC(N)=O)NC(=O)CNC(=O)[C@H](CC(C)C)NC(=O)[C@H](Cc1ccccc1)NC(=O)[C@@H](N)C(C)C)[C@@H](C)CC)C(C)C)C(=O)O [VFLGNIVSMGKKI] gave an MIC [12] of over 142 µM, an MIC [8] of over 142 µM and an MIC [16] of at least 142 µM. It also gave an MIC [17] of at least 142 µM.
